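Test compounds were applied to cells in 96-well plates for 48 hours at 5 doses. TGI: total growth inhibition.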

Some test systems named below: EKVX NSCLC; HOP-92 NSCLC; RPMI-8226 leukemia; HCT-116 colon; SR leukemia; MDA-MB-231 breast; SK-MEL-28 melanoma; K-562 leukemia; UACC-257 melanoma; A498 renal; MOLT-4 leukemia; KM12 colon; HL-60(TB) leukemia; PC-3 prostate; SW-620 colon; CAKI-1 renal; TK-10 renal; CCRF-CEM leukemia; HCT-15 colon.
Holding throughout (experiment): DTP human tumour cell line panel, 48 h

On to `CC1(C)C(=O)N(O)C(C)(C)N1O`, for which the TGI in the test with EKVX NSCLC, with HOP-92 NSCLC, in the test with RPMI-8226 leukemia, in the test on HCT-116 colon, in the test with SR leukemia and with MDA-MB-231 breast was greater than 10 µM each time. The TGI with SK-MEL-28 melanoma, with K-562 leukemia, in the test with UACC-257 melanoma, in the test on A498 renal, in the test on MOLT-4 leukemia and with KM12 colon was greater than 10 µM throughout. Also, the TGI with HL-60(TB) leukemia, in the test with PC-3 prostate, with SW-620 colon, in the test with CAKI-1 renal, with TK-10 renal and with CCRF-CEM leukemia was greater than 10 µM each time. In the test on HCT-15 colon, the TGI (as a rule, the concentration giving total growth inhibition) was greater than 10 µM.
For the compound `CCOC(=O)c1nc2ccc(C(F)(F)F)cc2nc1NCc1ccc(Cl)c(Cl)c1`, the TGI in the test on EKVX NSCLC is greater than 100 µM; with HOP-92 NSCLC it was 40.4 µM; with RPMI-8226 leukemia, greater than 100 µM; in the test with HCT-116 colon, greater than 100 µM; with SR leukemia, greater than 100 µM; in the test on MDA-MB-231 breast it was greater than 100 µM. Also, the TGI is greater than 100 µM in the test with K-562 leukemia; greater than 100 µM with UACC-257 melanoma; 92.1 µM with A498 renal; greater than 100 µM in the test on MOLT-4 leukemia; greater than 100 µM in the test with KM12 colon; greater than 100 µM with HL-60(TB) leukemia. The concentration for total growth inhibition (TGI) in the test on PC-3 prostate was 75.9 µM; in the test on SW-620 colon, greater than 100 µM; in the test with CAKI-1 renal it was 57.5 µM; with TK-10 renal, greater than 100 µM; in the test on CCRF-CEM leukemia, greater than 100 µM; with HCT-15 colon it was greater than 100 µM.
As for `COc1cc2c(/C=C3/C(=O)Nc4ccc(Cl)cc43)c(Cl)n(Cc3ccccc3)c2cc1C`, the TGI with HOP-92 NSCLC is 25.9 µM; with RPMI-8226 leukemia it was 6.9 µM; in the test with HCT-116 colon it was greater than 100 µM; in the test on SR leukemia it was 5.9 µM; with MDA-MB-231 breast it was 6.04 µM; in the test with SK-MEL-28 melanoma, 9.46 µM. Besides, the total growth inhibition concentration (TGI) is greater than 100 µM with K-562 leukemia; greater than 100 µM with UACC-257 melanoma; 5.72 µM with A498 renal; 5.02 µM with MOLT-4 leukemia; 5.64 µM in the test with KM12 colon; 17.4 µM in the test on HL-60(TB) leukemia. In addition, the total growth inhibition concentration (TGI) with PC-3 prostate is 22.2 µM; with SW-620 colon, greater than 100 µM; in the test on CAKI-1 renal it was 10.6 µM; with TK-10 renal, 3.76 µM; with CCRF-CEM leukemia, 6.78 µM; with HCT-15 colon, 17.8 µM.
In the case of `O=S1(=O)c2cnccc2NC(=NCc2cccc3ccccc23)N1c1ccccc1`, the TGI is greater than 100 µM in the test on EKVX NSCLC; greater than 100 µM in the test with HOP-92 NSCLC; greater than 76.6 µM with RPMI-8226 leukemia; greater than 100 µM in the test with HCT-116 colon; greater than 100 µM in the test on SR leukemia; greater than 100 µM in the test on MDA-MB-231 breast. Also, the TGI with SK-MEL-28 melanoma, in the test with K-562 leukemia, in the test on UACC-257 melanoma, with A498 renal, in the test with MOLT-4 leukemia and with KM12 colon was greater than 100 µM throughout. Also, the TGI with HL-60(TB) leukemia was greater than 53.7 µM; in the test on PC-3 prostate, greater than 81.8 µM; with SW-620 colon, greater than 100 µM; in the test with CAKI-1 renal, greater than 100 µM; in the test with TK-10 renal it was greater than 100 µM; in the test with CCRF-CEM leukemia it was greater than 100 µM. Besides, in the test with HCT-15 colon, the TGI is greater than 100 µM.
Take `c1csc(-c2cscc2-c2ccsc2)c1`: the TGI was greater than 100 µM in the test with EKVX NSCLC; greater than 100 µM with HOP-92 NSCLC; greater than 100 µM in the test with RPMI-8226 leukemia; greater than 100 µM in the test with HCT-116 colon; greater than 95.9 µM in the test with SR leukemia; greater than 100 µM in the test with MDA-MB-231 breast. Moreover, the TGI is greater than 100 µM in the test on SK-MEL-28 melanoma; greater than 100 µM with K-562 leukemia; greater than 100 µM with UACC-257 melanoma; greater than 100 µM in the test with A498 renal; greater than 100 µM in the test on MOLT-4 leukemia; greater than 85.6 µM in the test with KM12 colon. For the same compound, the TGI was greater than 93.8 µM in the test with HL-60(TB) leukemia; greater than 77.9 µM in the test with PC-3 prostate; greater than 100 µM in the test on SW-620 colon; greater than 100 µM in the test on CAKI-1 renal; greater than 100 µM in the test on TK-10 renal; greater than 100 µM in the test on CCRF-CEM leukemia. The TGI with HCT-15 colon was greater than 100 µM.
With `CC1=C(C(=O)Nc2cccc3c2C(=O)NC3=O)CC(C(=O)Nc2cccc3c2C(=O)NC3=O)=C(C)N1`, the TGI in the test with EKVX NSCLC, with HOP-92 NSCLC, in the test with RPMI-8226 leukemia, in the test with HCT-116 colon, in the test on SR leukemia and with MDA-MB-231 breast was greater than 100 µM each time. Moreover, the TGI with SK-MEL-28 melanoma, in the test with K-562 leukemia, with UACC-257 melanoma, in the test on A498 renal, in the test on MOLT-4 leukemia and with KM12 colon was greater than 100 µM throughout. The TGI in the test with HL-60(TB) leukemia, with PC-3 prostate, with SW-620 colon, in the test on CAKI-1 renal, in the test on TK-10 renal and with CCRF-CEM leukemia was greater than 100 µM throughout. The compound further returned a TGI with HCT-15 colon greater than 100 µM.
For the compound `CC1=NC(=O)C(C)(c2ccccc2)N1CCc1ccccc1` (stereo not given), the TGI with EKVX NSCLC, in the test on HOP-92 NSCLC, with RPMI-8226 leukemia, in the test with HCT-116 colon, in the test on SR leukemia and in the test with MDA-MB-231 breast was greater than 100 µM throughout. In addition, the TGI with K-562 leukemia is greater than 100 µM; in the test on UACC-257 melanoma, greater than 100 µM; with A498 renal, greater than 100 µM; in the test with MOLT-4 leukemia, 94.7 µM; with KM12 colon it was greater than 100 µM; in the test on HL-60(TB) leukemia it was greater than 100 µM. For the same compound, the TGI with PC-3 prostate, with SW-620 colon, in the test on CAKI-1 renal, in the test on TK-10 renal, in the test with CCRF-CEM leukemia and with HCT-15 colon was greater than 100 µM each time.

The record behind these values is PubChem BioAssay (NCI).
